Reference: patent US20100221228A1, “y134.5 Deficient HSV and the MAPK Pathway” (The University of Chicago, priority 2006, published 2010)

Assays:
[1] = system: HT1080 cells infected with R3616; test: MEK inhibitor study: R3616 yield in HT1080 cells with PD98059 or DMSO; format: cell-based, human
Procedure: (§1) Inhibitor studies—For experiments employing the known MEK inhibitor, PD98059, HT1080 cells were starved over night in serum-free medium and then exposed to 40 μM of PD98059 (EMD Biosciences, San Diego, Calif.), or DMSO (1:1000 dilution) 6 hours prior to, and during, infection. At 12 hours post-infection, whole cell lysates were created as described above for immunoblotting.
Finally, to determine if MEK inhibition affects viral replication, DMSO or PD98059 (40 μM) was added to replicate cultures of HT1080 cells 6 hours prior to, and during, infection with R3616 (1 PFU/cell).

[2] = system: HT1080 cells infected with R3616; test: MEK inhibitor study: immunoblotting of viral proteins and phospho-PKR; format: cell-based, human
Procedure: as §1
To determine if MEK mediates the observed mutant Ras-dependent suppression of PKR activation and resultant accumulation of viral proteins in HT1080 cells infected with mutant virus R3616, the relative expressions of representative a (ICP27), β (U142) and γ2 (glycoprotein C) viral proteins in cells treated with a specific chemical inhibitor of MEK-1 (PD98059) were compared. Replicate cultures of HT1080 cells were serum-starved overnight prior to exposure to equal volumes of DMSO or PD98059 (40 μM) for 6 hours prior to infection with R3616 mutant virus (10 PFU/cell). DMSO or drug treatment was then continued until the cells were harvested at 12 hours post-infection. The cells were then lysed and the lysates were subjected to electrophoresis in denaturing polyacrylamide gels, followed by transferring to PVDF membranes and reacting with antibody to ICP27, UL42, or gC. […] To test whether the decrease in the accumulation of gC correlated with activation of PKR, the electrophoretically separated lysates were also probed with antibody to the auto-phosphorylated form of PKR (P-Thr446). The presence of PD98059 prior to, and during, infection with R3616 […] the amount of activated PKR in HT1080 cells (FIG. 6, panel B).

[3] = PD98059 40 μM, R3616 10 PFU/cell, 12 hours post-infection

Q: With `COc1cccc(-c2cc(=O)c3ccccc3o2)c1N` [PD98059] as the compound, how does the “yield of R3616 lower than in the presence of DMSO” value ([1]; PD98059 40 μM) read?
A: approximately 15 fold

Q: What about the “yield of R3616 mutant virus” value ([1]; in the presence of PD98059 40 μM, 6 hours prior to and during infection, 1 PFU/cell, 36 hours) of the same compound?
A: 1.67×10^5 PFU/ml

Q: And the “amount of activated PKR (P-Thr446)” value ([2]; PD98059 40 μM prior to and during infection with R3616)?
A: increased

Q: What about the “accumulation of ICP27 and UL42 proteins” value [2, 3] of the same compound?
A: slight effect

Q: And the “amounts of gC that accumulated” value [2, 3]?
A: very dramatic decrease
